Data on three compounds can be found in US20230270764A1, “COMPOSITION COMPRISING CANNABINOIDS, TERPENES, AND FLAVONOIDS FOR TREATING DEPRESSION” (priority 2020, published 2023).

In experiment [1] the test system is BV2 microglial cells. Put plainly: α-synuclein-induced TNFα secretion by BV2 microglia cell cultures. It counts as cell-based, murine. The protocol:
(§1) The BV2 cells are cultured at 37° C. in a humidified atmosphere with 5% CO2 in high D-glucose (4.5 g/L) Dulbecco’s modified Eagle’s medium (Sigma, Rehovot, Israel) supplemented with 5% heat-inactivated fetal bovine serum, streptomycin (100 µg/ml), and penicillin (100 units/ml) and sodium pyruvate (1 mM; all from Biological Industries Ltd., Kibbutz Beit Haemek, Israel). 24 hours before experiments with LPS stimulation, the BV2 cells are split into 24 well plates, 2×10^5 cells per well, covered with 1 ml of growth medium and allowed to attach overnight. 24 hr before experiments with α-synuclein, the BV2 cells are split into 96-well plates, 50,000 (5×10^4) cells per well, covered with 200 µl of growth medium and allowed to attach overnight. Cultures of BV2 microglia cells are first treated by an individual cannabinoid, or terpene or flavonoid selected from: Cannabidiol (CBD), Δ-9-tetrahydrocannabinol (THC), Δ-8-tetrahydrocannabinol (THC), cannabigerol (CBG), cannabichromene (CBC), cannabigerolic acid (CBGA), Cannabidiolic acid (CBDA), THC acid (THCA), cannabichromenic Acid (CBCA), Cannabidivarin (CBDV), tetrahydrocannabivarin (THCV), Cannabichromevarin (CBCV), Cannabichromerocin ([…]), Cannabivarin (CBV), Cannabicitran (CBT), Cannabinol (CBN), Cannabicyclol (CBL), Cannabigerorcin (CBGO), Cannabinodiol (CBND), β-caryophyllene, β-elemene, β-myrcene, linalool, α-pinene, β-pinene, eucalyptol, alpha-terpineol, valencene, geraniol (lemonol), bisabolol, nerolidol, ocimene, terpinolene, humulene, α-terpinene, camphene, fenchol, α-phellandrene, Δ3-carene, γ-cardinene, sabinene, limonene, β-amyrin, cycloartenol, cannflavin A, cannflavin B, kaempferol, quercetin, luteolin, apigenin, canniprene, orientin, β-sitosterol, vitexin, isovitexin, and chrysin. Additional cultures of BV2 microglia cells are treated by an individual cannabinoid, with at least one additional cannabinoid, and/or terpene, and/or flavonoid, and/or celecoxib. Additional cultures are exposed to the vehicle of these compounds (cremophor, ethanol and PBS, 1:1:18 (v/v/v)) (FIG. 2A). In some studies, cultures of BV2 microglia cells are treated by a specific whole plant cannabis extract, with or without supplementation with cannabinoid(s), and/or terpene(s) and/or flavonoid(s), and/or celecoxib (FIG. 2B).
For each individual cannabinoid mentioned above, 3-4 concentrations are used, ranging from 0.1 to 10 µM. For ultra-low dose Δ9-THC the concentration used is 0.01 µM. For each individual terpene or flavonoid mentioned above, 3-4 concentrations are used, ranging from 1 to 50 µM. For celecoxib, 3-4 concentrations are used, ranging from 0.1 to 10 µM. Two hours following the treatment, the cultures are exposed to one of the following microglia stimulators: LPS (Sigma L2630; Escherichia coli serotype O111:B4) is dissolved in D-PBS (Sigma, D8537) to a pre-stock concentration of 1 mg/ml, aliquoted and stored at -80° C. Stock solution of LPS at 10 ug/ml is prepared using sterile D-PBS, followed by filtering via 0.22 µm filter membrane, aliquoting and storing in -20° C. LPS is applied into the cell medium at a final concentration of 100 ng/ml. Poly I:C (Sigma, P1530) was first dissolved in sterile, molecular grade water to the concentration of 10 mg/ml (following the manufacturer’s instructions). This stock solution was further diluted to the concentration of 1 mg/ml in sterile PBS, and the aliquots stored in -20 °C. […] To induce oligomerization, α-Synuclein solution is placed for 24 hours on a shaker with agitation of 80 rpm and at 37° C.

Experiment [2] has as its system BV2 microglial cells. Kind of experiment: LPS-induced IL-1β release by BV2 microglia cell cultures (ELISA). It counts as cell-based, murine. The settings on record: for IL-1β secretion vs Veh plus LPS: Example 4, by itself at 5 µM, not at 1 or 2.5 µM; for IC50: Mus musculus. On the procedure:
The BV2 murine microglial cell line is used in these studies.
as §1
For each individual cannabinoid mentioned above, 3-4 concentrations are used, ranging from 0.1 to 10 µM. For ultra-low dose Δ9-THC the concentration used is 0.01 µM. For each individual terpene or flavonoid mentioned above, 3-4 concentrations are used, ranging from 1 to 50 µM. For celecoxib, 3-4 concentrations are used, ranging from 0.1 to 10 µM. Two hours following the treatment, the cultures are exposed to one of the following microglia stimulators: LPS (Sigma L2630; Escherichia coli serotype O111:B4) is dissolved in D-PBS (Sigma, D8537) to a pre-stock concentration of 1 mg/ml, aliquoted and stored at -80° C. Stock solution of LPS at 10 ug/ml is prepared using sterile D-PBS, followed by filtering via 0.22 µm filter membrane, aliquoting and storing in -20° C. LPS is applied into the cell medium at a final concentration of 100 ng/ml. Poly I:C (Sigma, P1530) was first dissolved in sterile, molecular grade water to the concentration of 10 mg/ml (following the manufacturer’s instructions). This stock solution was further diluted to the concentration of 1 mg/ml in sterile PBS, and the aliquots stored in -20 °C.

In the next experiment the test system is LPS-injected mice. Kind of experiment: Sucrose preference test in the LPS-induced model of depression. It counts as in vivo.
The mark [3] stands for this setting: adult (6-9 months-old) male mice, acute CBD.
The mark [4] stands for this setting: young-adult male mice, CBD 30 mg/kg i.p. 3 consecutive days.

Turning to `C=C(C)[C@@H]1CCC(C)=C[C@H]1c1c(O)cc(CCCCC)cc1O` [CBD, cannabidiol], in the experiment with BV2 microglial cells [1] (Example 3, 10 µM), the “secretion of TNFα in cells incubated with α-synuclein aggregates/fibrils” value is recorded as “reduced”. For the same compound, the “release of TNFα by microglia incubated with α-synuclein aggregates/fibrils” value with BV2 microglial cells [1] (Example 8, CBD by itself 1, 2.5 or 5 µM) is recorded as “neither CBD (1, 2.5, or 5 µM) nor celecoxib (1 or 2.5 µM) by themselves affected the release of TNFα”. In addition, the IC50 was found to be 5.1 µM with BV2 microglial cells [1] (Mus musculus, BV-2, read-out: IC50, α-synuclein-induced TNFα release, Example 8 (FIG. 9B), by itself); 3.3 µM in the experiment on BV2 microglial cells [2] (BV-2, read-out: CBD IC50, LPS-induced IL-1β release, Example 4, addition of 1 µM kaempferol); 2.1 µM with BV2 microglial cells [2] (BV-2, read-out: CBD IC50, LPS-induced IL-1β release, Example 4, addition of 2.5 µM kaempferol); 1.1 µM in the experiment on BV2 microglial cells [2] (BV-2, read-out: CBD IC50, LPS-induced IL-1β release, Example 4, addition of 5 µM kaempferol); 2.1 µM in the experiment on BV2 microglial cells [2] (BV-2, read-out: CBD IC50, LPS-induced IL-1β release, Example 5, addition of 1 µM quercetin); 1.7 µM with BV2 microglial cells [2] (BV-2, read-out: CBD IC50, LPS-induced IL-1β release, Example 5, addition of 2.5 µM quercetin). Also, the IC50 was 0.5 µM in the experiment with BV2 microglial cells [2] (BV-2, read-out: CBD IC50, LPS-induced IL-1β release, Example 5, addition of 5 µM quercetin); 4.7 µM with BV2 microglial cells [2] (BV-2, read-out: IC50 for IL-1β inhibition, Example 25 (FIG. 25F), extracts calculated on dominant cannabinoid); 4.5 µM with BV2 microglial cells [2] (BV-2, read-out: IC50 for inhibiting LPS-induced IL-1β release, Example 4 (FIG. 5D), by itself); 3.3 µM with BV2 microglial cells [2] (BV-2, read-out: IC50 for inhibiting LPS-induced IL-1β release, Example 5 (FIG. 6D), by itself). For the same compound, in the experiment with BV2 microglial cells [2] (Example 3, 5 and 10 µM), the IL-1β levels entry was “effectively reduced”. For the same compound, in the experiment with BV2 microglial cells [2], the “IL-1β secretion vs Veh plus LPS” value was “effective in decreasing IL-1β”. The “IL-1β release vs Veh plus LPS” value with BV2 microglial cells [2] (Example 5, alone at 5 µM, no effect at 1 and 2.5 µM) is “decreased the IL-1β levels significantly”. The “LPS-induced IL-1β secretion” value with BV2 microglial cells [2] (Example 7, CBD 5 µM by itself (p<0.001)) is given as “significant suppression of IL-1β secretion”. In the experiment with BV2 microglial cells [2] (Example 25, CannA, CannB 2.5, 5 and 10 µM, CBD, CannC 5 and 10 µM), the “LPS-induced IL-1β release” value is “significantly reduced”. In addition, the “sucrose preference vs vehicle-LPS group” value in the experiment with LPS-injected mice (Example 18, celecoxib 10, 20, 30 mg/kg or CBD 30 mg/kg by themselves) was “no significant effects”. The “sucrose consumption, LPS-injected groups” value in the experiment on LPS-injected mice (setting [3]) was “significant difference between the CBD- and vehicle-treated group”. Further, the sucrose preference entry in the experiment on LPS-injected mice (setting [3]) was “reduction in the negative effect of LPS on sucrose preference”. Moreover, the “sucrose preference and sucrose consumption” value with LPS-injected mice (adult and young adult female mice, acute CBD, saline or LPS) is listed as “None of these parameters was influenced by treatment with CBD”. For the same compound, the “sucrose preference compared with the saline-injected control group” value in the experiment on LPS-injected mice (adult female mice, LPS, CBD 30 mg/kg, CBD 30 mg plus kaempferol 60 mg) is “significantly reduced sucrose preference”. In the experiment with LPS-injected mice (young adult (2.5-3 months old) male mice, acute CBD), the “LPS-induced decreases in sucrose preference and sucrose consumption” value is given as “None of these parameters was influenced by treatment with CBD”. Further, the “sucrose consumption, main effect of CBD” value in the experiment with LPS-injected mice (young-adult female mice, acute CBD, difference among saline-injected mice) is “significantly reduced”. For the same compound, the “LPS-induced reduction in sucrose consumption” value with LPS-injected mice (setting [4]) is recorded as “no effect”. For the same compound, the “LPS-induced suppression of sucrose preference” value in the experiment on LPS-injected mice (setting [4]) is listed as “completely reversed”.

Turning to `C=C(C)[C@@H]1CCC(C)=C[C@H]1c1c(O)cc(CCCCC)c(C(=O)O)c1O` [CBDA, Cannabidiolic acid], the “sucrose consumption vs Vehicle-treated LPS-injected mice” value with LPS-injected mice (young-adult female mice, CBDA 1 mg/kg (not 0.5 or 5)) was “significantly increased”; in the experiment with LPS-injected mice (young-adult male mice, CBDA 1 mg/kg), “significantly increased”; in the experiment with LPS-injected mice (young-adult male mice, CBDA 5 mg/kg, CBD 25 mg/kg and CBDA 1 mg/kg) it was “significant increase”. Also, the “sucrose preference vs Vehicle-treated LPS-injected mice” value in the experiment with LPS-injected mice (young-adult female mice, CBDA 1 mg/kg (not 0.5 or 5) i.p. 1 hr before LPS 330 µg/kg) was “significantly increased”; in the experiment on LPS-injected mice (young-adult male mice, CBDA 1 mg/kg (not 5)), “significantly increased”.

Regarding `O=c1c(O)c(-c2ccc(O)cc2)oc2cc(O)cc(O)c12` [kaempferol], in the experiment with BV2 microglial cells [2], the “IL-1β secretion vs Veh plus LPS” value is on record as “effective in decreasing IL-1β”. Besides, the IC50 with BV2 microglial cells [2] (BV-2, Example 4 (FIG. 5D), by itself, read-out: IC50 for inhibiting LPS-induced IL-1β release) stood at 6.2 µM.
